Laboratory results published in PMC8496261 (RSC Chemical Biology, 2021).
Numbered stars: 1 amine (or outer) side, 2 acyl side, 3 side chain; on linkers, the order of the positions; unused ones are H or OH. Bridge positions count the residues as written; N and C are the ends. Peptide text beside a SMILES is read from it. * marks the point of attachment. FITC = O=C1OC2(c3ccc(O)cc3Oc3cc(O)ccc32)c2ccc(NC(=S)*)cc21; X1 = Cc1c(C[*:1])n2c(C[*:2])c(C)c(=O)n2c1=O; βAla = NCCC(=O)O

Key:
PCNA (hPCNA) = PCNA (hPCNA) (Homo sapiens, UniProt P12004); experiment: SPR steady state binding affinity for PCNA; details: for PCNA binding affinity, in words: SPR, 2 compared with peptide 1, 9 compared with peptide 7
Sequence of PCNA (hPCNA) (P12004 whole entry): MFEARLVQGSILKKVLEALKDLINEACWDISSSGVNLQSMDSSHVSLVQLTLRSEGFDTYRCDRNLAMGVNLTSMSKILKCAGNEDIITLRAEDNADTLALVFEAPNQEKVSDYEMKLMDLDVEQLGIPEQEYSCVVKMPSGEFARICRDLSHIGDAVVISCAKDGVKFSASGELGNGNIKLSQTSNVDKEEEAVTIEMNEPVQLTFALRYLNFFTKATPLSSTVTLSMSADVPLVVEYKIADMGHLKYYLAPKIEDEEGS

[1] = test system: MDA-MB-468 breast cancer cells (mKate nuclear label); experiment: Cell uptake assay imaged by confocal fluorescence microscopy; assay type: cell-based, human; details: MDA-MB-468 cells, 10 μM peptide, 24 h, fixed

Compound	Kd (PCNA (hPCNA); SEM)	PCNA binding affinity, in words (PCNA (hPCNA))	intracellular distribution of peptide fluorescence [1]
CSCC[C@H](NC(=O)[C@H](CO)NC(=O)[C@@H](NC(=O)[C@H](CCC(N)=O)NC(=O)[C@@H](N)CCCNC(=N)N)[C@@H](C)O)C(=O)N[C@H](C(=O)N[C@@H](CC(=O)O)C(=O)N[C@@H](Cc1ccccc1)C(=O)N[C@@H](Cc1ccc(O)cc1)C(=O)N[C@@H](Cc1c[nH]cn1)C(=O)N[C@@H](CO)C(=O)N[C@@H](CCCCN)C(N)=O)[C@@H](C)O [Peptide 1] (H-RQTSMTDFYHSK-NH2)	102 ± 5 nM		
CSCC[C@@H]1NC(=O)[C@H](CO)NC(=O)[C@@H](NC(=O)[C@H](CCC(N)=O)NC(=O)[C@H](CCCNC(=N)N)NC(=O)CCNC(=S)Nc2ccc3c(c2)C(=O)OC32c3ccc(O)cc3Oc3cc(O)ccc32)CSCc2c(C)c(=O)n3c(=O)c(C)c(n23)CSC[C@@H](C(=O)N[C@@H](Cc2ccccc2)C(=O)N[C@@H](Cc2ccc(O)cc2)C(=O)N[C@@H](Cc2c[nH]cn2)C(=O)N[C@@H](CO)C(=O)N[C@@H](CCCCN)C(N)=O)NC(=O)[C@H]([C@@H](C)O)NC1=O [Peptide 9] ({FITC-βAla}-RQCSMTCFYHSK-NH2; linker 3-7 via X1)		dramatically decreases the binding affinity	both blue and green fluorescence present throughout the cell cytoplasm
Ac-RQCSMTCFYHSK-NH2 [Peptide 2]		significantly reduced PCNA affinity	
